# In patent US12673104B2, “Cleavable polymer drug conjugates” (RS ARASTIRMA EGITIM DANISMANLIK ILAC SANAYI TICARET ANONIM …, priority 2016, dated 2026):
# Assay: Pharmacokinetic study (plasma total DTX)
# Assay type: in vivo
# Settings: total DTX in plasma
# Procedure: PEGMEMA-DTX conjugates having 50 kDa and 85 kDa molecular weight were subjected to pharmacokinetic testing and its pharmacokinetic profile was compared with that of free DTX.
# Pharmacokinetic parameters for total DTX were calculated using the plasma total DTX concentration values of polymer drug conjugates and free DTX. Half-life, volume of distribution (VDβ), clearance (CL), and total area under the curve (AUC total) were calculated.
# In order to provide similarity the HPMA-GFLG-DTX polymer was prepared without RGDfK targeting group.
smiles,measurement,setting,value
"CC(=O)O[C@@]12CO[C@@H]1C[C@H](O)[C@@]1(C)C(=O)[C@H](O)C3=C(C)[C@@H](OC(=O)[C@H](O)[C@@H](NC(=O)OC(C)(C)C)c4ccccc4)C[C@@](O)([C@@H](OC(=O)c4ccccc4)[C@H]21)C3(C)C [Free DTX, Docetaxel]",AUC total,,10 ± 3 µg·h/mL
same,clearance,read-out: CL (clearance) (converted),2.34 mL/min
same,half-life,read-out: Half Life (β) (converted),3.12 ± 0.88 h
same,Vd,read-out: VDβ (volume of distribution),0.664 ± 0.258 L
